Reference: patent US3931396A, “Method of preparation of a composition having a base of 99^m technetium for diagnosis by scintigraphy” (priority 1974, dated 1976)

Experiments:
pyrophosphatases = details: cited from earlier work
bone = assay: Bone scintigraphy, pyrophosphate compared to polyphosphate; format: in vivo; details: as compared to polyphosphates, in words
Method: The animal was anesthetized with ethylcarbamate after injection and immediately before scintigraphy was carried out. Scintigraphy was carried out after 5 minutes, 1 hour, 2 hours and 4 hours following injection. Two recording methods were applied:
a. conventional scanning,
b. scanning, followed by information treatment for calculating surface activities.

SMILES: O=P(O)(O)OP(=O)(O)O [pyrophosphate]
- hydrolysis by pyrophosphatases (pyrophosphatases): rapid hydrolysis
- time-period before bone scintigraphy (required by elimination from organs) (bone): shorter than in the case of polyphosphates
